Experimental data taken from patent US20110173718A1, “HERBICIDE TOLERANT PLANTS” (SYNGENTA CROP PROTECTION, INC., priority 2008, published 2011).
Like-named read-outs stand apart in the source and are kept apart here.

Test system: weeds
Test: Glasshouse weed control, HST inhibitors alone and with A22, pre-emergence
Assay type: in vivo
Settings: 14 DAT; for pest or weed control at 15.625 g/ha / pest or weed control at 62.5 g/ha / pest or weed control at 250 g/ha: 336 h
Method in brief: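 Weeds grown in glasshouse trays (24-27 C day, 18-21 C night, ~15 h photoperiod) and track-sprayed in 0.2% X77 at […], pre-emergence or post-emergence at about 7-12 d. HPPD inhibitor A22 applied at 2 g/ha alone or mixed with HST herbicides. Damage scored 0–100% at 14 DAT; synergy calculated by Colby formula.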

[1] = BRAPL, HST inhibitor rate 15.625 g/ha, read-out: BRAPL Obs, % control score
[2] = BRAPL, HST inhibitor rate 62.5 g/ha, read-out: BRAPL Obs, % control score
[3] = BRAPL, HST inhibitor rate 250 g/ha, read-out: BRAPL Obs, % control score
[4] = PANMI, HST inhibitor rate 15.625 g/ha, read-out: PANMI Obs, % control score
[5] = PANMI, HST inhibitor rate 62.5 g/ha, read-out: PANMI Obs, % control score
[6] = PANMI, HST inhibitor rate 250 g/ha, read-out: PANMI Obs, % control score
[7] = SIDSP, HST inhibitor rate 15.625 g/ha, read-out: SIDSP Obs, % control score
[8] = SIDSP, HST inhibitor rate 62.5 g/ha, read-out: SIDSP Obs, % control score
[9] = SIDSP, HST inhibitor rate 250 g/ha, read-out: SIDSP Obs, % control score
[10] = Digitaria sanguinalis, DIGSA, HST inhibitor rate 15.625 g/ha, read-out: DIGSA Obs, % control score
[11] = Digitaria sanguinalis, DIGSA, HST inhibitor rate 62.5 g/ha, read-out: DIGSA Obs, % control score
[12] = Digitaria sanguinalis, DIGSA, HST inhibitor rate 250 g/ha, read-out: DIGSA Obs, % control score
[13] = Echinochloa crus-galli, ECHCG, HST inhibitor rate 15.625 g/ha, read-out: ECHCG Obs, % control score
[14] = Echinochloa crus-galli, ECHCG, HST inhibitor rate 62.5 g/ha, read-out: ECHCG Obs, % control score
[15] = Echinochloa crus-galli, ECHCG, HST inhibitor rate 250 g/ha, read-out: ECHCG Obs, % control score
[16] = Setaria faberi, SETFA, HST inhibitor rate 15.625 g/ha, read-out: SETFA Obs, % control score
[17] = Setaria faberi, SETFA, HST inhibitor rate 62.5 g/ha, read-out: SETFA Obs, % control score
[18] = Setaria faberi, SETFA, HST inhibitor rate 250 g/ha, read-out: SETFA Obs, % control score

SMILES	pest or weed control at 15.625 g/ha [1] [%]	pest or weed control at 62.5 g/ha [2] [%]	pest or weed control at 250 g/ha [3] [%]	pest or weed control at 15.625 g/ha [4] [%]	pest or weed control at 62.5 g/ha [5] [%]	pest or weed control at 250 g/ha [6] [%]	pest or weed control at 15.625 g/ha [7] [%]	pest or weed control at 62.5 g/ha [8] [%]	pest or weed control at 250 g/ha [9] [%]	pest or weed control at 15.625 g/ha [10] [%]	pest or weed control at 62.5 g/ha [11] [%]	pest or weed control at 250 g/ha [12] [%]	pest or weed control at 15.625 g/ha [13] [%]	pest or weed control at 62.5 g/ha [14] [%]	pest or weed control at 250 g/ha [15] [%]	pest or weed control at 15.625 g/ha [16] [%]	pest or weed control at 62.5 g/ha [17] [%]	pest or weed control at 250 g/ha [18] [%]	further results
O=c1c(-c2c(F)ccc(F)c2Cl)c(O)c2nccnc2n1CC(F)F [Compound 2.3]	–	–	–	–	–	–	–	–	–	–	–	–	–	–	–	–	–	–	BRAPL Obs, % control score (BRAPL, HST inhibitor rate 15.625 g/ha): 0%; BRAPL Obs, % control score (BRAPL, HST inhibitor rate 62.5 g/ha): 2%; BRAPL Obs, % control score (BRAPL, HST inhibitor rate 250 g/ha): 40%; DIGSA Obs, % control score (DIGSA, HST inhibitor rate 15.625 g/ha): 0%; DIGSA Obs, % control score (DIGSA, HST inhibitor rate 62.5 g/ha): 0%; DIGSA Obs, % control score (DIGSA, HST inhibitor rate 250 g/ha): 40%; ECHCG Obs, % control score (ECHCG, HST inhibitor rate 15.625 g/ha): 0%; ECHCG Obs, % control score (ECHCG, HST inhibitor rate 62.5 g/ha): 10%; ECHCG Obs, % control score (ECHCG, HST inhibitor rate 250 g/ha): 50%; PANMI Obs, % control score (PANMI, HST inhibitor rate 15.625 g/ha): 0%; PANMI Obs, % control score (PANMI, HST inhibitor rate 62.5 g/ha): 0%; PANMI Obs, % control score (PANMI, HST inhibitor rate 250 g/ha): 50%; SETFA Obs, % control score (SETFA, HST inhibitor rate 15.625 g/ha): 0%; SETFA Obs, % control score (SETFA, HST inhibitor rate 62.5 g/ha): 5%; SETFA Obs, % control score (SETFA, HST inhibitor rate 250 g/ha): 30%; SIDSP Obs, % control score (SIDSP, HST inhibitor rate 15.625 g/ha): 0%; SIDSP Obs, % control score (SIDSP, HST inhibitor rate 62.5 g/ha): 0%; SIDSP Obs, % control score (SIDSP, HST inhibitor rate 250 g/ha): 20%
O=c1c(-c2c(F)ccc(Br)c2Cl)c(O)c2nccnc2n1CC(F)F [Compound 2.8]	0	1	15	0	0	60	0	0	2	0	0	30	0	2	50	0	0	10	–
O=c1c(-c2cc(C(F)(F)F)ccc2Cl)c(O)c2nccnc2n1CC(F)F [Compound 2.9]	0	2	50	0	0	60	0	0	40	0	0	65	0	0	60	0	0	30	–
O=c1c(-c2c(Cl)ccc(Cl)c2Cl)c(O)c2nccnc2n1CC(F)F [Compound 2.14]	0	2	20	0	0	2	0	0	5	0	0	5	0	5	50	0	2	20	–
O=c1c(-c2c(F)ccc(Br)c2Cl)c(O)c2cccnc2n1CC(F)F [Compound 2.15]	0	0	0	0	0	0	0	0	0	0	0	0	0	0	0	0	0	0	–
